± gives the expanded uncertainty stated by the source.
Conditions: Liquid, Vibrating tube method

C=CCCCCC [1-heptene]
mass density (283.52 K, 15000 kPa): 718.3 ± 2 kg/m3 | mass density (283.52 K, 20000 kPa): 722.2 ± 2 kg/m3 | mass density (283.52 K, 25000 kPa): 725.9 ± 2.1 kg/m3 | mass density (283.52 K, 30000 kPa): 729.4 ± 2.1 kg/m3 | mass density (283.52 K, 35000 kPa): 732.9 ± 2.1 kg/m3 | mass density (283.52 K, 40000 kPa): 736.1 ± 2.1 kg/m3 | mass density (283.52 K, 55000 kPa): 745.3 ± 2.1 kg/m3 | mass density (283.53 K, 100 kPa): 705.5 ± 2 kg/m3 | mass density (283.53 K, 500 kPa): 705.9 ± 2 kg/m3 | mass density (283.53 K, 1000 kPa): 706.4 ± 2 kg/m3 | mass density (283.53 K, 3000 kPa): 708.2 ± 2 kg/m3 | mass density (283.53 K, 5000 kPa): 710 ± 2 kg/m3 | mass density (283.53 K, 10000 kPa): 714.3 ± 2 kg/m3 | mass density (283.53 K, 45000 kPa): 739.3 ± 2.1 kg/m3 | mass density (283.53 K, 50000 kPa): 742.4 ± 2.1 kg/m3 | mass density (283.53 K, 60000 kPa): 748.2 ± 2.1 kg/m3 | mass density (283.53 K, 80000 kPa): 759 ± 2.2 kg/m3 | mass density (283.53 K, 90000 kPa): 763.9 ± 2.2 kg/m3 | mass density (283.54 K, 70000 kPa): 753.8 ± 2.2 kg/m3 | mass density (283.54 K, 100000 kPa): 768.7 ± 2.3 kg/m3 | mass density (293.45 K, 100 kPa): 697 ± 2 kg/m3 | mass density (293.45 K, 500 kPa): 697.4 ± 2 kg/m3 | mass density (293.45 K, 1000 kPa): 697.9 ± 2 kg/m3 | mass density (293.45 K, 5000 kPa): 701.8 ± 2 kg/m3 | mass density (293.45 K, 20000 kPa): 714.8 ± 2 kg/m3 | mass density (293.45 K, 25000 kPa): 718.7 ± 2.1 kg/m3 | mass density (293.45 K, 30000 kPa): 722.4 ± 2.1 kg/m3 | mass density (293.45 K, 35000 kPa): 726 ± 2.1 kg/m3 | mass density (293.45 K, 55000 kPa): 739 ± 2.1 kg/m3 | mass density (293.45 K, 60000 kPa): 742 ± 2.1 kg/m3 | mass density (293.45 K, 70000 kPa): 747.8 ± 2.2 kg/m3 | mass density (293.45 K, 80000 kPa): 753.2 ± 2.2 kg/m3 | mass density (293.45 K, 90000 kPa): 758.3 ± 2.2 kg/m3 | mass density (293.45 K, 100000 kPa): 763.1 ± 2.3 kg/m3 | mass density (293.46 K, 3000 kPa): 699.9 ± 2 kg/m3 | mass density (293.46 K, 10000 kPa): 706.4 ± 2 kg/m3 | mass density (293.46 K, 15000 kPa): 710.7 ± 2 kg/m3 | mass density (293.46 K, 40000 kPa): 729.4 ± 2.1 kg/m3 | mass density (293.46 K, 45000 kPa): 732.8 ± 2.1 kg/m3 | mass density (293.46 K, 50000 kPa): 736 ± 2.1 kg/m3 | mass density (303.37 K, 100 kPa): 688.4 ± 2 kg/m3 | mass density (303.37 K, 500 kPa): 688.9 ± 2 kg/m3 | mass density (303.37 K, 55000 kPa): 732.8 ± 2.1 kg/m3 | mass density (303.37 K, 100000 kPa): 757.7 ± 2.3 kg/m3 | mass density (303.38 K, 1000 kPa): 689.5 ± 2 kg/m3 | mass density (303.38 K, 3000 kPa): 691.6 ± 2 kg/m3 | mass density (303.38 K, 5000 kPa): 693.6 ± 2 kg/m3 | mass density (303.38 K, 10000 kPa): 698.5 ± 2 kg/m3 | mass density (303.38 K, 15000 kPa): 703.1 ± 2 kg/m3 | mass density (303.38 K, 20000 kPa): 707.4 ± 2 kg/m3 | mass density (303.38 K, 25000 kPa): 711.5 ± 2.1 kg/m3 | mass density (303.38 K, 30000 kPa): 715.4 ± 2.1 kg/m3 | mass density (303.38 K, 35000 kPa): 719.2 ± 2.1 kg/m3 | mass density (303.38 K, 40000 kPa): 722.8 ± 2.1 kg/m3 | mass density (303.38 K, 45000 kPa): 726.2 ± 2.1 kg/m3 | mass density (303.38 K, 50000 kPa): 729.5 ± 2.1 kg/m3 | mass density (303.38 K, 60000 kPa): 735.9 ± 2.1 kg/m3 | mass density (303.38 K, 70000 kPa): 741.8 ± 2.2 kg/m3 | mass density (303.38 K, 80000 kPa): 747.4 ± 2.2 kg/m3 | mass density (303.38 K, 90000 kPa): 752.6 ± 2.2 kg/m3 | mass density (313.29 K, 100 kPa): 680.6 ± 2 kg/m3 | mass density (313.3 K, 500 kPa): 681.1 ± 2 kg/m3 | mass density (313.3 K, 5000 kPa): 686.2 ± 2 kg/m3 | mass density (313.3 K, 20000 kPa): 700.9 ± 2 kg/m3 | mass density (313.3 K, 25000 kPa): 705.2 ± 2.1 kg/m3 | mass density (313.3 K, 30000 kPa): 709.3 ± 2.1 kg/m3 | mass density (313.3 K, 35000 kPa): 713.3 ± 2.1 kg/m3 | mass density (313.3 K, 40000 kPa): 717 ± 2.1 kg/m3 | mass density (313.3 K, 45000 kPa): 720.6 ± 2.1 kg/m3 | mass density (313.3 K, 50000 kPa): 724 ± 2.1 kg/m3 | mass density (313.3 K, 55000 kPa): 727.4 ± 2.1 kg/m3 | mass density (313.3 K, 60000 kPa): 730.6 ± 2.2 kg/m3 | mass density (313.3 K, 70000 kPa): 736.8 ± 2.2 kg/m3 | mass density (313.3 K, 80000 kPa): 742.6 ± 2.2 kg/m3 | mass density (313.3 K, 90000 kPa): 748 ± 2.2 kg/m3 | mass density (313.3 K, 100000 kPa): 753.1 ± 2.3 kg/m3 | mass density (313.31 K, 1000 kPa): 681.8 ± 2 kg/m3 | mass density (313.31 K, 3000 kPa): 684 ± 2 kg/m3 | mass density (313.31 K, 10000 kPa): 691.3 ± 2 kg/m3 | mass density (313.31 K, 15000 kPa): 696.3 ± 2 kg/m3 | mass density (323.18 K, 100 kPa): 670.5 ± 2 kg/m3 | mass density (323.18 K, 500 kPa): 671 ± 2 kg/m3 | mass density (323.18 K, 1000 kPa): 671.6 ± 2 kg/m3 | mass density (323.18 K, 3000 kPa): 674.1 ± 2 kg/m3 | mass density (323.18 K, 10000 kPa): 682 ± 2 kg/m3 | mass density (323.18 K, 25000 kPa): 696.6 ± 2.1 kg/m3 | mass density (323.18 K, 30000 kPa): 700.9 ± 2.1 kg/m3 | mass density (323.18 K, 35000 kPa): 705 ± 2.1 kg/m3 | mass density (323.18 K, 40000 kPa): 708.9 ± 2.1 kg/m3 | mass density (323.18 K, 45000 kPa): 712.7 ± 2.1 kg/m3

Source: the NIST ThermoML archive (doi:10.1021/acs.jced.8b00229)
